Laboratory results published in ChEMBL document CHEMBL5390242, “Design, Synthesis, and Antitumor Efficacy of Substituted 2-Amino[1,2,4]triazolopyrimidines and Related Heterocycles as Dual Inhibitors for Microtubule Polymerization and Janus Kinase 2” (J Med Chem, 2023).
Calls of active or inactive are those of the source. The rule behind the calls is not given here.

What was measured:
A549 [1] = experiment: Induction of apoptosis in human A549 cells assessed as late apoptotic cells at 10 nM incubated for 24 hrs by Annexin V-FITC/PI staining based flow cytometry (reference value: 1.72 %); type: functional
A549 [2] = experiment: Induction of apoptosis in human A549 cells assessed as late apoptotic cells at 5 nM incubated for 24 hrs by Annexin V-FITC/PI staining based flow cytometry (reference value: 1.72 %); type: functional
[3] = biological target: T1, JAK2-STAT3 (Homo sapiens) (UniProt O60674+P40763); experiment: Inhibition of JAK2/STAT3 signalling pathway in human A549 cells assessed as effect on STAT3 protein level at 5 to 20 uM incubated for 24 hrs by Western blotting analysis; type: cell-based; conditions: dose 5-20 µM
A549 [4] = experiment: Induction of apoptosis in human A549 cells at 10 uM incubated for 24 hrs by Annexin V-FITC/PI staining based flow cytometry; type: functional
KP-4 = experiment: Antiproliferative activity against human KP-4 cells assessed as cell growth inhibition incubated for 48 hrs by MTT assay; type: functional, cell-based; conditions: KP-4, 48 h
A2780 = experiment: Antiproliferative activity against human A2780 cells assessed as cell growth inhibition incubated for 48 hrs by MTT assay; type: functional, cell-based; conditions: A2780, 48 h
A549 [5] = experiment: Induction of apoptosis in human A549 cells at 20 uM incubated for 24 hrs by Annexin V-FITC/PI staining based flow cytometry; type: functional
Tubulin = Tubulin (Sus scrofa, UniProt P02554+P02550); experiment: Inhibition of porcine brain tubulin polymerization measured for 30 mins in presence of GTP by microplate reader assay; type: tissue-based
A549 [6] = experiment: Induction of apoptosis in human A549 cells assessed as early apoptotic cells at 20 nM incubated for 24 hrs by Annexin V-FITC/PI staining based flow cytometry (reference value: 4.61 %); type: functional
[7] = Toxicity in Balb/c mouse xenografted with human A549 cells assessed as effect on spleen morphology at 50 mg/kg,ip administration measured after 31 days by Hematoxylin-eosin staining based microscopy; type: organism-based; conditions: in vivo, 744 h, time 31 day
[8] = AUC (0 to infinity) in CD-1 mouse assessed as AUC (0 to infinity) of metabolite at 10 mg/kg,ip measured upto 24 hrs by HPLC-MS/MS analysis; type: ADME, organism-based; set-up: time < 24 hrs, dose 10 mg/kg, route ip; conditions: in vivo
[9] = Half life in CD-1 mouse assessed as half life of metabolite at 10 mg/kg,ip measured upto 24 hrs by HPLC-MS/MS analysis; type: ADME, organism-based; conditions: in vivo
[10] = AUC (0 to infinity) in CD-1 mouse at 10 mg/kg,ip measured upto 24 hrs by HPLC-MS/MS analysis; type: ADME, organism-based; set-up: time < 24 hrs, dose 10 mg/kg, route ip; conditions: in vivo
[11] = MRT (0 to t) in CD-1 mouse assessed as MRT (0 to t) of metabolite at 10 mg/kg,ip measured upto 24 hrs by HPLC-MS/MS analysis; type: ADME, organism-based; conditions: in vivo
A549 [12] = experiment: Induction of mitochondrial membrane potential loss in human A549 cells by measuring green fluorescence at 20 nM incubated for 16 hrs by JC-1 staining based flow cytometry analysis (reference value: 0.7 %); type: functional
[13] = Resistance index, ratio of IC50 for antiproliferative activity against human A2780T cells to IC50 for antiproliferative activity against human A2780 cells; type: functional
A549 [14] = experiment: Induction of apoptosis in human A549 cells assessed as increase in intracellular ROS level at 5 to 20 nM incubated for 16 hrs by DCFH-DA staining based fluorescence microscopy; type: functional, cell-based; conditions: dose 5-20 nM
A549 [15] = experiment: Antitumor activity against human A549 cells xenografted in Balb/c mouse assessed as tumor size at 50 mg/kg,ip administration measured after 31 days; type: functional; conditions: time 31 day
A549 [16] = experiment: Induction of mitochondrial membrane potential loss in human A549 cells by measuring red fluorescence at 10 nM incubated for 16 hrs by JC-1 staining based flow cytometry analysis (reference value: 99.3 %); type: functional
A2780/Taxol = experiment: Antiproliferative activity against human A2780T cells assessed as cell growth inhibition incubated for 48 hrs by MTT assay; type: functional, cell-based
[17] = Half life in CD-1 mouse at 10 mg/kg,ip measured upto 24 hrs by HPLC-MS/MS analysis; type: ADME, organism-based; conditions: in vivo
[18] = Resistance index, ratio of IC50 for antiproliferative activity against human HCT-8/VCR cells to IC50 for antiproliferative activity against human HCT-8 cells; type: functional
PC-3 = experiment: Antiproliferative activity against human PC-3 cells assessed as cell growth inhibition incubated for 48 hrs by MTT assay; type: functional, cell-based; conditions: PC-3, 48 h
A549 [19] = experiment: Antitumor activity against human A549 cells xenografted in Balb/c mouse assessed as reduction in tumor weight at 50 mg/kg,ip administration measured after 31 days; type: functional; set-up: scale not given: the % may be the effect or the level left; conditions: time 31 day
[20] = biological target: T1, JAK2-STAT3 (Homo sapiens); experiment: Inhibition of JAK2/STAT3 signalling pathway in human A549 cells assessed as downregulation of STAT3 phosphorylation incubated for 24 hrs by Western blotting analysis; type: cell-based
NCI/ADR-RES = experiment: cells; conditions: Homo sapiens, 48 h
Description: Antiproliferative activity against human MCF7ADR cells assessed as cell growth inhibition incubated for 48 hrs by MTT assay

With `COc1cc(-c2nccc3nc(Nc4cccc5[nH]ccc45)nn23)cc(OC)c1OC` the Activity (A549 [1]) was 14.7%, the Activity (A549 [2]) was 1.78% and the inhibition [3] was “inactive”. For the same compound, the Activity (A549 [4]) was 40.6%, the IC50 (KP-4) was 13 nM and the IC50 (A2780) was 75 nM. For the same compound, the Activity (A549 [5]) was 80.7%, the IC50 (Tubulin) was 1300 nM and the Activity (A549 [6]) was 34.6%. The Activity [7] was “Non-Toxic”, the AUC [8] was 2604.3 ng·h/mL and the t1/2 [9] was 5.3 h. The AUC(0-inf) [10] was 580 ng·h/mL, the “MRT(t)” value [11] was 3.5 h and the Activity (A549 [12]) was 44.1%. For the same compound, the “Ratio IC50” value [13] was 0.3, the Activity (A549 [14]) was “Active” and the Activity (A549 [15]) was 315.8 mm3. The Activity (A549 [16]) was 73.6%, the IC50 (A2780/Taxol) was 20 nM and the half-life [17] was 5.5 h. For the same compound, the “Ratio IC50” value [18] was 1.4, the IC50 (PC-3) was 224 nM and the Activity (A549 [19]) was 70%. For the same compound, the inhibition [20] was “Dose-Dependent Effect” and the IC50 (NCI/ADR-RES) was 64 nM.
